Test system: ASIC2a+3
Experiment: Whole cell patch clamp of ASIC2a/3 channel complex heterologously expressed in CHO cells (Example 3)
Assay type: cell-based
Conditions: 50 μM; CHO cells expressing ASIC2a+3; FIG. 10A
Procedure: Another example of an in vitro assessment method consists of using mammalian heterologous expression systems, which are known to the skilled in the art, and include a variety of mammalian cell lines such as COS, HEK, e.g., HEK293 and/or CHO, cells. Cell lines are transfected with gated ion channel(s) and used to perform electrophysiology as follows: All experiments are performed at room temperature (20-25° C.) in voltage clamp using conventional whole cell patch clamp methods (Neher, E., et al. (1978) Pfluegers Arch 375:219-228). The amplifier used is the EPC-9 (HEKA-electronics, Lambrect, Germany) run by a Macintosh G3 computer via an ITC-16 interface. Experimental conditions are set with the Pulse-software accompanying the amplifier. Data is low pass filtered and sampled directly to hard-disk at a rate of 3 times the cut-off frequency. […] The cells are held at a holding voltage of −60 mV and at the start of each experiment the current is continuously measured for 45 s to ensure a stable baseline. […] Current amplitudes are measured at the peak of the responses, and effect of the compounds is calculated as the amplitude at compound equilibrium divided by the amplitude of the current evoked by the pulse just before the compound is included. […] The trace represents the current evoked by the pH drop recorded using whole cell patch clamp electrophysiology.

## Cc1ccc(-c2nc(Nc3ccc(C(=O)O)cc3)c3cc(Cl)ccc3n2)cc1 [Compound 124]
  pH evoked response (ASIC2a+3 current): markedly reduced
